{"source": "patent US20060224077A1", "about": "“Analysis of a skin reactivity and hypersensitivity” (priority 2002, published 2006)", "tested_on": "maxillary nerve (V2, sensory)", "test": "Action potential of the maxillary nerve in response to electrical stimulation at face level, recorded non-invasively in vivo", "set-up": "species or system human", "conditions": "cream containing 0.75% capsaicin, 2 mg/cm^2 on a 2×4 mm skin zone immediately above the upper lip; 5 minutes after application; versus before application", "from_the_text": "The process according to the invention which uses the electrogenesis of the nerves and/or the brain is characterized in that: • two non-invasive electrodes (1,1′) are applied, at least one of the two electrodes being applied to a specific point of the zone of the skin to be analyzed, the measuring point, in order to detect the electrical activity of the nerves of the skin and/or the subcutaneous nerves at that point or even the electrical activity of the brain. These electrodes are associated with a circuit for evaluating the signals detected by the electrodes, this evaluation circuit comprising amplifying elements (2, 2′, 3), processing elements (7) and recording elements for the signals and also a microprocessor (8), • the skin zone to be analyzed is exposed to a stimulation, more particularly an electrical stimulation, and • the changes in the electrical signals detected by the electrodes driven by the stimulation as a function of time are analyzed over a certain period. […]\nFIG. 8 compares the variations in the action potential of the maxillary nerve (V2, sensory) in response to an electrical stimulation at face level before and immediately after the topical application of xylocaine (5%). […] A cream containing 0.75% capsaicin was used for this purpose and was applied in a quantity of 2 mg/cm^2 to a 2×4 mm skin zone immediately above the upper lip. […]", "data": [{"smiles": "COc1cc(CNC(=O)CCCC/C=C/C(C)C)ccc1O", "note": "[capsaicin]", "values": [{"measurement": "increase of the amplitude of the nerve potential after application", "value": 75, "unit": "%"}]}]}
